The text below walks through data of patent US5821262A, “Hydroxamic acid derivatives as inhibitors of cytokine production” (British Biotech Pharmaceuticals Limited, priority 1993, dated 1998).

pIC50: −log10 of the molar value.

The subject of experiment [1] is TNFα release from human monocytic cell line U937. Kind of experiment: inhibition of PMA-stimulated TNFα release from U937 cells (ELISA). The following applies: U-937, PMA 50 nM, 18 hours, 37° C., read-out: IC50, concentration which inhibits the release of TNFα by 50% relative to control culture. It is filed as cell-based. How it is done: The ability of example compounds of the invention to inhibit the release of TNF was investigated. The assay is based on the ability of phorbol myristate acetate (PMA) to stimulate the release of TNF a from a human monocytic cell line, U937.
U937 cells cultured in RPMI 1640 medium+5% foetal calf serum are centifuged at 1000×g for 5 minutes and then resuspended in medium at 2×10^6 /ml. 1 ml of cell suspension is aliquoted into individual wells of 24-well plates. Test compounds are dissolved in dimethyl sulphoxide (DMSO) at a stock concentration of 100 mM, then diluted to 50× the final required concentration with RPMI 1640 medium. 20 μl of the diluted compounds are added to U937 cells in duplicate wells. TNF a release is stimulated by addition of PMA to the cells at a final concentration of 50 nM. Appropriate control cultures are set up in duplicate. The plates are incubated for 18 hours at 37° C., 5% CO2, then centrifuged at 1000×g for 5 minutes. A specific ELISA for TNFα obtained from British Bio-technology Products Limited, Abingdon, England is used to measure TNFα levels in the culture supernatants
The average concentration of test compound which inhibits the release of TNF a by 50% relative to the control culture was assessed.
Background: In an ELISA, binding on a coated surface is turned into a signal by an enzyme label.

For another experiment, the target named is stromelysin (Homo sapiens, UniProt P08254). Kind of experiment: stromelysin inhibition, 14C acetylated casein, procedure of Cawston et al. It is filed as biochemical. Particulars: 37°, 16 hours, pH 7.5. How it is done: The potency of compounds of Examples 1 to 6 to act as inhibitors of stromelysin was determined by the procedure of Cawston et al, (Biochem. J., 195, 159-165, 1981), hereby incorporated by reference, whereby a 1 mM solution of the compound being tested, or a dilution thereof, was incubated at 37° for 16 hours with stromelysin and ^14 C acetylate casein (buffered with 25 mM Hepes, pH 7.5 containing 5 mM CaCl2, 0.05% Brij 35 and 0.02% NaN3). The casein was acetylated ^14 C casein prepared by the method of Cawston et al (ibid).
Chain of stromelysin (P08254 100-477): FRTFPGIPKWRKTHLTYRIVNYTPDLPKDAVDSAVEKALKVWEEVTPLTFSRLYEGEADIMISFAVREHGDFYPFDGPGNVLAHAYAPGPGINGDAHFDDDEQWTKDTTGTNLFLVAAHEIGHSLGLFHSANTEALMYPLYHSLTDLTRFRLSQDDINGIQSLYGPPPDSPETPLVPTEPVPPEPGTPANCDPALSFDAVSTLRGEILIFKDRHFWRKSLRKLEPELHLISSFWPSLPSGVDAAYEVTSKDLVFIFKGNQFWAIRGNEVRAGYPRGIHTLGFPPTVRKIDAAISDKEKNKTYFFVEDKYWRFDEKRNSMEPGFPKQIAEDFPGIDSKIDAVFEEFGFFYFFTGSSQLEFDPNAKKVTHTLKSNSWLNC

In another experiment the target is T1, collagenase (Homo sapiens, UniProt P03956).
T1 sequence (P03956 100-469): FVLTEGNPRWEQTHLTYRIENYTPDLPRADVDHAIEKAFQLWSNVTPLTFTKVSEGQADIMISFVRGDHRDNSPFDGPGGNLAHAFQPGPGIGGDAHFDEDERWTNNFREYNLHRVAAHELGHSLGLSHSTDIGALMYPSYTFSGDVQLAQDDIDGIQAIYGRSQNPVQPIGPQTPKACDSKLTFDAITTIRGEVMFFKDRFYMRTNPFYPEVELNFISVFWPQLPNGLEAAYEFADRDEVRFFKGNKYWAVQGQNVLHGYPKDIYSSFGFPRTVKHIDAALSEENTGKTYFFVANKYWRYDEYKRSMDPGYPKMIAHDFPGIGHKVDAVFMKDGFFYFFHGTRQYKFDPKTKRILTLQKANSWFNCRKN
Briefly: collagenase inhibition, 14C collagen, procedure of Cawston and Barrett. The class given is biochemical. The following applies: 37°, 16 hours, pH 7.5. From the text: The collagen was acetylated ^14 C collagen prepared by the method of Cawston and Murphy, (Methods in Enzymology, 80, 711, 1981), hereby incorporated by reference. The samples were centrifuged to sediment undigested collagen, and an aliquot of the radioactive supernatant removed for assay on a scintillation counter as a measure of hydrolysis.

In the next experiment the test system is TNF. Briefly: inhibition of endotoxin (LPS) induced TNF production in vivo, serum TNF in anaesthetised rats. Also noted: species or system male CD rats. Particulars: rat, 10 mg/kg intravenous 15 minutes prior to LPS 50 μg/kg, infusion maintained 2 hours. The protocol:
The compound of Example 1 was assessed for its ability to inhibit release of endotoxin induced TNF production in vivo.
Male Male CD rats (Charles River, UK) weighing between 300 g-400 g were anaesthetised with an intra-peritoneal injection of a mixture of 62.5 mg·kg^-1 thiopental and 22.5 mg·kg^-1 sodium pentobarbitone (Thiopental, Sigma Chemical Co., UK; Sodium pentobarbitone (Sagatal), May and Baker., UK). The trachea was exposed and cannulated to allow spontaneous respiration through a patent airway. The left jugular vein was exposed and cannulated for the administration of LPS. The right femoral artery was exposed and cannulated for withdrawal of blood samples.
Blood samples (1 ml) were removed just prior to bolus administration of either LPS (E. coli serotype 0111:b4, Difco Laboratories, USA) or saline (NaCL 0.9% w/v) and at intervals of 1 hour and 2 hours after LPS. Removed blood was replaced with equal amounts of saline.
The peak of TNF release was at the 1 hour timepoint. […] levels were expressed in units/ml where 1 unit is the equivalent of 1 pg of mouse TNFα.
Rat serum TNF levels were measured using a mouse TNFα reference standard. The commercial ELISA kits were from Genzyme.
The compound of example 1 was administered intravenously to aneasthetised rats at a dose of 10 mg·kg^-1, 15 minutes prior to LPS administration. […]

For the compound `CNC(=O)[C@H](CCCCN(CSc1ccc(O)cc1)C(=O)OC(C)(C)C)NC(=O)[C@H](CC(C)C)[C@H](CSc1ccc(O)cc1)C(=O)NO` [Example 3, N^2-[4-(N-Hydroxyamino)-3S-(4-hydroxyphenylthiomethyl)-2R-isobutylsuccinyl]-N^6-tert-butyloxycarbonyl-N^6-(4-hydroxyphenylthiomethyl)-L-lysine-N^1-methylamide], the pIC50 is above 4.30 in experiment [1], 7.30 against stromelysin and 7.52 against collagenase.
Turning to `CNC(=O)[C@H](CCCCNC(=O)OC(C)(C)C)NC(=O)[C@H](CC(C)C)[C@H](CSc1cccs1)C(=O)NO` [Example 4, N^2-[4-(N-Hydroxyamino)-3S-(2-thienythiomethyl)-2R-isobutylsuccinyl]-N^6-tert-butyloxycarbonyl-L-lysine-N^1-methylamide], the pIC50 in experiment [1] is above 4.30; against stromelysin, 7.70.
With `CNC(=O)[C@H](CCCCNC(=O)OC(C)(C)C)NC(=O)[C@H](CC(C)C)[C@H](CSc1ccc(O)cc1)C(=O)NO` [Example 2, N^2-[4-(N-Hydroxyamino)-3S-(4-hydroxyphenylthiomethyl)-2R-isobutylsuccinyl]-N^6-tert-butyloxycarbonyl-L-lysine-N^1-methylamide], the pIC50 is above 4.30 in experiment [1], 7.82 against stromelysin and 7.82 on collagenase.
For the compound `CNC(=O)[C@@H](NC(=O)[C@H](CC(C)C)[C@H](CSc1ccc(O)cc1)C(=O)NO)[C@@H](C)OC(C)(C)C` [Example 5, N^2-[4-(N-Hydroxyamino)-3S-(4-hydroxyphenylthiomethyl)-2R-isobutylsuccinyl]-O-tert-butyl-L-threonine-N^1-methylamide], the pIC50 is 7.40 against stromelysin and 8.30 on collagenase.
On to `CNC(=O)[C@H](CCCCNC(C)=O)NC(=O)[C@H](CC(C)C)[C@H](CSc1ccc(O)cc1)C(=O)NO` [Example 1, N^2-[4-(N-Hydroxyamino)-3S-(4-hydroxyphenylthiomethyl)-2R-isobutylsuccinyl]-N^6-acetyl-L-lysine-N^1-methylamide], for which the “reduction of LPS-induced release of TNF, 1 hour timepoint” value in the experiment on TNF (1 hour after LPS) is listed as “more than 50%”. For the same compound, in the experiment on TNF (2 hours after LPS), the “reduction of LPS-induced release of TNF, 2 hour timepoint” value is on record as “more than 50%”. Also, in experiment [1], the pIC50 was above 4.30.
`CNC(=O)CC[C@H](NC(=O)[C@H](CC(C)C)[C@H](CSc1ccc(O)cc1)C(=O)NO)C(=O)NC` [Example 6, N^2-[4-(N-Hydroxyamino)-3S-(4-hydroxyphenylthiomethyl)-2R-isobutylsuccinyl]-L-glutamine-N^1,N^5-dimethylamide]: the values for the pIC50 (in experiment [1]; on stromelysin; at collagenase) were above 4.30, 7.15 and 8.22, respectively.
